According to patent publication US6887883B2, “Use of natural chrysanthone compounds having antiangiogenic activity” (Sigma-Tau Industrie Farmaceutiche Riunite S.p.A., priority 2000, dated 2005):
Read-outs that look alike come from different tables or passages of the source.

Key:
Format in all cases: cell-based
[1] = system: BMEC endothelial cells; experiment: Chemotaxis test using the Boyden chamber (BMEC migration towards bovine serum)
Text: This test is the first screening assay for compounds with potential angiogenesis inhibiting or facilitating activity (Glaser B. M. et al, Nature, 1980; 288:483-4).
Chrysanthone A, one of the compounds to which the invention relates, was subjected to a chemotaxis test using the Boyden chamber (Werner F., Goodwin R. H. and Leonard E. J., Journal of Immunology Methods, 1980; 33:239-247).
The realisation of this in-vitro assay has entailed the development of techniques for the isolation and culture of bovine endothelial cells of both the aorta (BAEC) and the adrenal marrow (BMEC) as well as the identification of suitable reference compounds. One of the advantages of the use of the Boyden chamber for the chemotaxis test is the possibility of obtaining quantitative data. The Boyden chamber consists in an upper and a lower well separated by a polycarbonate filter with 8 μm pores. A solution containing the chemoattractant is placed in the lower well, while the cells are inserted in the upper well. After a period of incubation, the cells which have migrated across the filter in response to the chemotactic stimulus are counted on the undersurface of the membrane.
In the chemotaxis test, the chemoattractant selected was bovine serum (1% in DMEM culture medium). The BMEC endothelial cells were resuspended in DMEM with 1% bovine serum albumin (BSA) and analysed in this test for 4 hours. The chemotaxis was quantified by direct cell count under the optical microscope. The migration percentages presented in the chemotaxis table expressed as “% migration” were calculated according to the formula: (T−C/C)×100 where T=mean number (n^o) of cells migrating in the test sample, and C=mean number of cells migrating in the control.
A control consisting of cells not treated with the study compound, migrating towards the serum, was included in every chemotaxis experiment.
The mean number of cells migrating refers to the readings of 5 microscopic fields/well in 4 independent chemotaxis wells per sample.
Normally, suramin is used as the reference compound in chemotaxis tests.
(§1) This test was conducted using the procedure described in Example 1.

[2] = system: Bovine microvascular endothelial cells (BMEC); experiment: Sulphorhodamine B (SRB) cytotoxicity test on BMEC; settings: for IC50: concentration corresponding to 50% of cytotoxic activity, read-out: Cytototoxicity on BMEC IC50; for Cytototoxicity on BMEC IC0: maximum non-cytotoxic concentration
Experimental: The evaluation of the intrinsic toxicity of chrysanthone A was done by comparing it with suramin using the Sulphorhodamine B (SRB) cytotoxicity test described here below.
Bovine microvascular endothelial cells (BMEC) were seeded, at a density of 3000 cells/well, on 96-well microtiter plates, in normal culture medium (200 μl/well). On the next day the study compounds were added to the wells in scalar concentrations. On the third day after seeding the medium was removed and three washings with PBS were performed. At the end of the washings, 200 μl of culture medium were added to each well and the plates were placed in an incubator at 37° C., 5% CO2 for the next 48 hours. At the end of this incubation period, the medium was removed and the cells were treated cold for 1 hour with a solution of 15% trichloroacetic acid (TCA). The wells were washed three times with distilled H2O by immersion of the plate and removal by overturning. 200 μl/well of 0.4% SRB in 1% acetic acid were added to the plates and incubated for 30 min. The wells were washed three times with 1% acetic acid, and lastly 200 μl/well of Tris 10 mM were added.
The staining of the well was quantified by spectrophotometric readout at a wavelength of 540 nm. Comparison of the values obtained in the wells containing the study compound and the controls made it possible to determine the IC50 and IC0 of the compound according to the invention, defined respectively as the concentration corresponding to 50% of cytotoxic activity (IC50) and the maximum non-cytotoxic concentration (IC0).
as §1

[3] = system: MCF-7 line; experiment: SRB cytotoxicity test on human tumour line MCF-7; settings: MCF7, MCF-7 human tumour line
[4] = system: Mes-Sa line; experiment: SRB cytotoxicity test on human tumour line Mes-Sa
[5] = system: LoVo-Dx line; experiment: SRB cytotoxicity test on human tumour line LoVo-Dx
[6] = system: LoVo line; experiment: SRB cytotoxicity test on human tumour line LoVo
[7] = Bos taurus, Endothelial cell, compound at its IC0 (chrysanthone A 0.4 μM, two independent experiments; chrysanthone C 10 μM)

SMILES: CO[C@@H]1CC(=O)c2c(cc3c(c2O)COC(C)(O)C3)[C@@H]1O (stereo partly drawn) [Chrysanthone C]
- inhibition at 10 µM [1, 7]: 54%
- IC50 ([2]; Bos taurus, Endothelial cell): 35 µM
- Cytototoxicity on BMEC IC0 [2]: 10 µM

SMILES: CO[C@@H]1CC(=O)c2c(cc3cc(C)ncc3c2O)[C@@H]1O [Chrysanthone A]
- inhibition at 0.4 µM [1, 7]: 44%
- inhibition of BMEC migration ([1]; compound at its IC0 (chrysanthone A 0.4 μM, two independent experiments; chrysanthone C 10 μM)): 52%±2.8
- IC50 [3]: 11.6 µM
- IC50 [4]: 7.8 µM
- IC50 [5]: 80 µM
- IC50 ([2]; listed as chrysanthone A): 1.5 µM
- IC50 [2]: 35 µM
- Cytototoxicity on BMEC IC0 [2]: 0.4 µM
- IC50 [6]: 15.8 µM

SMILES: Cc1ccc(C(=O)Nc2ccc(S(=O)(=O)O)c3cc(S(=O)(=O)O)cc(S(=O)(=O)O)c23)cc1NC(=O)c1cccc(NC(=O)Nc2cccc(C(=O)Nc3cc(C(=O)Nc4ccc(S(=O)(=O)O)c5cc(S(=O)(=O)O)cc(S(=O)(=O)O)c45)ccc3C)c2)c1 [Suramin, reference compound]
- % Migration IC0 ([1]; 1% bovine serum chemoattractant, 4 hours, compound at its IC0 (concentration printed in cell), (T−C/C)×100 vs untreated control): 100 μM = −58%
- IC50 ([2]; Bos taurus, Endothelial cell): > 500 µM
- Cytototoxicity on BMEC IC0 [2]: 100 µM
